# Measured values from US10287298B2, “Nitrogen-containing analogs of salinomycin, synthesis and use against cancer stem cells and malaria” (Centre National de la Recherche Scientifique (CNRS), priority 2014, dated 2019).
# pIC50: −log10 of the molar value. Like-named read-outs stand apart in the source and are kept apart here.
# How the values were obtained:
# [1] = tested on: HMLER CD24− cells; assay: Cell viability assay (CellTiter-Blue), IC50 assessment; assay type: cell-based, Human; conditions: for pIC50: Homo sapiens, read-out: IC50 CD24−
# Procedure: (§1) FIG. 1 represents viability of HMLER CD24− cells (full line) and HMLER CD24+ cells (dotted line) at different concentration of salinomycine (1A), AM5 […] or AM13 (1D).
# (§2) Cell viability assay was carried out by plating 1000 cells per well in 96-well plates. NAC (2 mM, A9165 Sigma) or DFO (1 mM) were pretreated 2 hours prior to the compound treatment. CellTiter-Blue® Reagent (Promega; G3582) (20 μl/well) was added after 24, 48, or 72 hours treatment and cells were incubated for 1 hour before recording fluorescence (560(20)Ex/590(10)Em) using a Perkin Elmer Wallac 1420 Victor2 Microplate Reader.
# [2] = tested on: HMLER CD24+ cells; assay: as above; assay type: cell-based; conditions: Homo sapiens, read-out: IC50 CD24+
# Procedure: as §1, §2
# [3] = tested on: BT20; assay: Cell death IC50, Annexin V-FITC/PI flow cytometry; assay type: cell-based; conditions: Homo sapiens, read-out: IC50 BT20
# Procedure: (§3) The cells were seeded in a 6-well plate at density 5.105 cells/well and cultured overnight. The cells were then treated with various concentration (15, 30, 100, 500, 1000 and 10.000 nM) of salinomycine, AM5 and AM23 for 72 h, 96 h and 108 h. After treatment, cell death was quantified using Annexin V-FITC/Propidium Iodide (PI) assay according to the manufacturer's protocol (FITC Annexin V Apoptosis Detection Kit II, 556570, BD Pharmingen™) and analyzed by a LSRFortessa™ flow cytometer (BD Bioscience, San Jose, Calif.). The data were processed using Cell Quest software (BD Biosciences). Dose-response cell death curves were determined for indicated time.
# (§4) For tumor cells, the cells are classified in function of their sensitivity of drugs. Here, the most sensitive cells are incubated for 72 h, the middle sensitive cells for 96 h and the less sensitive or resistant cells are incubated for 108 h with drug at several concentrations.
# (§5) Concentrations of 30 nM, 500 nm and 1 μM were used for determining the IC50 of drugs.
# (§6) Intervals][…]] mean that IC50 is included in this interval with exclusion of the valor 30 nM.
# [4] = tested on: BT474; assay: Cell death IC50, Annexin V-FITC/PI flow cytometry; assay type: cell-based; conditions: Homo sapiens, read-out: IC50 BT474
# Procedure: as §3, §4, §5, §6
# [5] = tested on: BT549; assay: Cell death IC50, Annexin V-FITC/PI flow cytometry; assay type: cell-based; conditions: Homo sapiens, read-out: IC50 BT549
# Procedure: as §3, §4, §5, §6
# [6] = tested on: HBL100; assay: Cell death IC50, Annexin V-FITC/PI flow cytometry; assay type: cell-based; conditions: Homo sapiens
# Procedure: as §3, §4, §5, §6
# [7] = tested on: HMLE W2; assay: Cell death IC50, Annexin V-FITC/PI flow cytometry; assay type: cell-based; conditions: Homo sapiens, read-out: IC50 HMLE W2
# Procedure: as §3, §4, §5, §6
# [8] = tested on: HMLER CD24low; assay: Cell death IC50, Annexin V-FITC/PI flow cytometry; assay type: cell-based; conditions: Homo sapiens, read-out: IC50 HMLER CD24low
# Procedure: as §3, §4, §5, §6
# [9] = tested on: HMLER GFP; assay: Cell death IC50, Annexin V-FITC/PI flow cytometry; assay type: cell-based; conditions: Homo sapiens; 1rst sensibility (72 h)
# Procedure: as §3, §4, §5, §6
# [10] = tested on: HMLER ID2; assay: Cell death IC50, Annexin V-FITC/PI flow cytometry; assay type: cell-based; conditions: Homo sapiens, read-out: IC50 HMLER ID2
# Procedure: as §3, §4, §5, §6
# [11] = tested on: HMLER shECAD; assay: Cell death IC50, Annexin V-FITC/PI flow cytometry; assay type: cell-based; conditions: Homo sapiens, read-out: IC50 HMLER shECAD
# Procedure: as §3, §4, §5, §6
# [12] = tested on: MCF-7; assay: Cell death IC50, Annexin V-FITC/PI flow cytometry; assay type: cell-based; conditions: Homo sapiens, read-out: IC50 MCF-7
# Procedure: as §3, §4, §5, §6
# [13] = tested on: MDA-MB-134; assay: Cell death IC50, Annexin V-FITC/PI flow cytometry; assay type: cell-based; conditions: Homo sapiens, read-out: IC50 MDA-MB-134
# Procedure: as §3, §4, §5, §6
# [14] = tested on: MDA-MB-231; assay: Cell death IC50, Annexin V-FITC/PI flow cytometry; assay type: cell-based; conditions: Homo sapiens, read-out: IC50 MDA-MB-231
# Procedure: as §3, §4, §5, §6
# [15] = tested on: MDA-MB-361; assay: Cell death IC50, Annexin V-FITC/PI flow cytometry; assay type: cell-based; conditions: Homo sapiens, read-out: IC50 MDA-MB-361
# Procedure: as §3, §4, §5, §6
# [16] = tested on: MDA-MD-157; assay: Cell death IC50, Annexin V-FITC/PI flow cytometry; assay type: cell-based; conditions: Homo sapiens, read-out: IC50 MDA-MD-157
# Procedure: as §3, §4, §5, §6
# [17] = tested on: T47D; assay: Cell death IC50, Annexin V-FITC/PI flow cytometry; assay type: cell-based; conditions: Homo sapiens, Resistant (108 h)
# Procedure: as §3, §4, §5, §6
# [18] = tested on: Zr75.1; assay: Cell death IC50, Annexin V-FITC/PI flow cytometry; assay type: cell-based; conditions: Homo sapiens, read-out: IC50 Zr75.1
# Procedure: as §3, §4, §5, §6
# [19] = tested on: HMLER CD24− cells; assay: Cell proliferation and formation of mammospheres; assay type: cell-based, Human
# Excerpt: FIG. 2 is a representative phase contrast photomicrographs of mammospheres formed after 11 days in the absence of any added compound (Control) or in the presence of a defined amount of salinomycine, AM5, AM9 or AM13. […] The size of the mammospheres is correlated with progenitor cell proliferation, whereas the number of mammospheres formed after serial passages at clonal density is correlated with the self-renewal capacity of primitive Cancer Stem Cells. […]
# FIG. 9 represents images of the third generation of mammospheres formed from individual HMLER CD24low cells treated during 7 days with the indicated drug. The size of the mammospheres is correlated with progenitor cell proliferation capacity, whereas the number of mammospheres formed after serial passages at clonal density is correlated with the self-renewal capacity of primitive Cancer Stem Cells.
# AM5, AM9, AM13 and salinomycine were assessed for their capability to inhibit cell proliferation and formation of mammospheres. […]
# AM5 and AM23 and salinomycine were assessed for their capability to inhibit cell proliferation and formation of mammospheres.
# [20] = tested on: Cell lines; assay: Apoptosis by Annexin V-FITC and PI staining with or without NAC; assay type: cell-based; conditions: 500 nM, 48 h
# Procedure: FIG. 5: Salinomycine analogue—induced cell death is inhibited by the ROS scavenger N-acetylcysteine (NAC). Cell lines were incubated with or without 500 nM of Sal analogues for 48 h. Apoptosis was evaluated by Annexin V-FITC and PI staining, and FACS analysis. All data are expressed as means±s.d. from three individual experiments (*; P<0.05)
# Salinomycine analogue-induced cell death is inhibited by the ROS scavenger N-acetylcysteine (NAC). Cell lines were incubated with or without 500 nM of Sal analogues for 48 h. Apoptosis was evaluated by AnnexinV-FITC and PI staining, and FACS analysis.
# [21] = third generation of mammospheres, HMLER CD24low cells treated 7 days
structure (smiles),measurement,setting,value
"C#CCN[C@@H]1C=C[C@]2(O[C@H]([C@@H](CC)C(=O)[C@@H](C)[C@@H](O)[C@H](C)C3O[C@@H](C(CC)C(=O)O)CC[C@@H]3C)[C@@H](C)C[C@H]2C)O[C@@]12CC[C@@](C)([C@H]1CC[C@](O)(CC)[C@H](C)O1)O2 (some centres unmarked) [AM5, Sal-Propargylamine]",pIC50,"[1]; HMLER CD24− cells, cell viability",7.07
same,activity against CD24 cells compared with salinomycine,[1]; comparison of the IC50 results,significantly improved activity
same,pIC50,"[2]; HMLER CD24+ cells, cell viability",5.45
same,pIC50,"[3]; BT-20, 3rd sensibility (108 h)",6.30 to 7.52
same,pIC50,"[4]; BT-474, 2nd sensibility (96 h)",< 6.00
same,pIC50,"[5]; BT-549, Resistant (108 h)",< 6.00
same,pIC50,"[6]; HBL-100, No tumoral, read-out: IC50 HBL100",< 6.00
same,pIC50,[7]; Immortalized,< 6.00
same,pIC50,[8]; 1rst sensibility (72 h),> 7.52
same,pIC50,[9],6.00
same,pIC50,[10]; 1rst sensibility (72 h),< 6.00
same,pIC50,[11]; 1rst sensibility (72 h),6.30 to 7.52
same,pIC50,"[12]; MCF7, 1rst sensibility (72 h), ]30-500] excludes 30 nM",6.30 to 7.52
same,pIC50,[13]; 2nd sensibility (96 h),6.30 to 7.52
same,pIC50,"[14]; MDA-MB-231, 2nd sensibility (96 h)",< 6.00
same,pIC50,"[15]; MDA-MB-361, 2nd sensibility (96 h)",6.30
same,pIC50,[16]; 2nd sensibility (96 h),6.30
same,pIC50,[17],< 6.00
same,pIC50,"[18]; ZR-75-1, 1rst sensibility (72 h), ]30-500] excludes 30 nM",6.30 to 7.52
same,"inhibition of cell proliferation, efficacy in comparison with salinomycine",[19]; at 30 nM,ten-fold improved efficacy
same,number and size of mammosphere,"[19]; mammospheres after 11 days, low nanomolar concentrations",reduced the number and the size of mammosphere
same,number of mammospheres,[19]; [21],reduced the number of mammospheres
same,size of mammospheres,[19]; [21],do not alter the tumor diameters
same,cell death (apoptosis) mechanism,[20],induce cell death through lysosomal ROS production
"CCC(C(=O)O)[C@H]1CC[C@H](C)C([C@@H](C)[C@H](O)[C@H](C)C(=O)[C@H](CC)[C@H]2O[C@]3(C=C[C@@H](O)[C@]4(CC[C@@](C)([C@H]5CC[C@](O)(CC)[C@H](C)O5)O4)O3)[C@H](C)C[C@@H]2C)O1 (some centres unmarked) [Salinomycine, Salinomycin]",pIC50,[1],5.81
same,pIC50,[2],4.96
same,pIC50,"[3]; BT-20, 108 h",6.30
same,pIC50,"[4]; BT-474, 96 h",< 6.00
same,pIC50,"[5]; BT-549, 108 h",< 6.00
same,pIC50,"[6]; HBL-100, read-out: IC50 HBL100",< 6.00
same,pIC50,[7],< 6.00
same,pIC50,[8]; 72 h,6.30 to 7.52
same,pIC50,[9],6.00
same,pIC50,[10]; 72 h,< 6.00
same,pIC50,[11]; 72 h,6.30 to 7.52
same,pIC50,"[12]; MCF7, 72 h",6.30 to 7.52
same,pIC50,[13]; 96 h,6.30 to 7.52
same,pIC50,"[14]; MDA-MB-231, 96 h",< 6.00
same,pIC50,"[15]; MDA-MB-361, 96 h",6.30
same,pIC50,[16]; 96 h,6.00
same,pIC50,[17],< 6.00
same,pIC50,"[18]; ZR-75-1, 72 h",6.30
same,size of mammospheres,[19]; [21],do not alter the tumor diameters
same,cell death (apoptosis) mechanism,[20],induce cell death through lysosomal ROS production
